Columns and labels:
Type in all cases: in vivo
[1] = test system: Chilo suppressalis (Striped Rice Stemborer); assay: Example B4: Chilo suppressalis (striped rice stemborer), artificial diet; conditions: 144 h, application rate 200 ppm, L2 larvae, 6 days after infestation, read-out: control in at least one of the three categories (mortality, anti-feedant or growth inhibition)
Protocol: Example B4: Chilo suppressalis (Striped Rice Stemborer)
24-well microtiter plates with artificial diet were treated with aqueous test solutions prepared from 10′000 ppm DMSO stock solutions by pipetting. After drying, the plates were infested with L2 larvae (6-8 per well). The samples were assessed for mortality, anti-feeding effect, and growth inhibition in comparison to untreated samples 6 days after infestation. Control of Chilo suppressalis by a test sample is given when at least one of the categories mortality, anti-feedant effect, and growth inhibition is higher than the untreated sample.

[2] = test system: Diabrotica balteata (Corn Root Worm); assay: Example B1: Diabrotica balteata (corn root worm), sprayed maize sprouts; conditions: 96 h, application rate 200 ppm, L2 larvae, 4 days after infestation, read-out: control in at least one of the two categories (mortality or growth inhibition)
Protocol: Example B1: Diabrotica balteata (Corn Root Worm)
Maize sprouts placed onto an agar layer in 24-well microtiter plates were treated with aqueous test solutions prepared from 10′000 ppm DMSO stock solutions by spraying. After drying, the plates were infested with L2 larvae (6 to 10 per well). The samples were assessed for mortality and growth inhibition in comparison to untreated samples 4 days after infestation.

[3] = test system: Plutella xylostella (Diamondback Moth); assay: Example B13: Plutella xylostella (diamondback moth), artificial diet, 96-well; conditions: 216 h, application rate 500 ppm, eggs/L1 larvae, 9 days after infestation
Protocol: Example B13: Plutella xylostella (Diamondback Moth)
96-well microtiter plates containing artificial diet were treated with aqueous test solutions, prepared from 10′000 ppm DMSO stock solutions, by a liquid handling robot. After drying, eggs (˜30 per well) were infested onto a netted lid which was suspended above the diet. The eggs hatch and L1 larvae move down to the diet. The samples were assessed for mortality 9 days after infestation.

[4] = test system: Spodoptera littoralis (Egyptian Cotton Leaf Worm); assay: Example B9: Spodoptera littoralis (Egyptian cotton leaf worm), sprayed cotton leaf discs; conditions: foliar, 72 h, application rate 200 ppm, L1 larvae, 3 days after infestation, read-out: control in at least one of the three categories (mortality, anto-feedant or growth inhibition)
[5] = test system: Plutella xylostella (Diamond Back Moth); assay: Example B5: Plutella xylostella (diamond back moth), artificial diet, 24-well; conditions: 192 h, application rate 200 ppm, eggs, 8 days after infestation, read-out: control in at least one of the two categories (mortality or growth inhibition)
Protocol: Example B5: Plutella xylostella (Diamond Back Moth)
24-well microtiter plates with artificial diet were treated with aqueous test solutions prepared from 10′000 ppm DMSO stock solutions by pipetting. After drying, Plutella eggs were pipetted through a plastic stencil onto a gel blotting paper and the plate was closed with it. The samples were assessed for mortality and growth inhibition in comparison to untreated samples 8 days after infestation.

CC(NC(=O)c1cc(C2CC2(F)F)cc(C(F)(F)F)c1)c1nc(Br)nn1-c1ncc(OCC(F)F)cn1 (centres unmarked) [Compound P8, N-[1-[5-bromo-2-[5-(2,2-difluoroethoxy)pyrimidin-2-yl]-1,2,4-triazol-3-yl]ethyl]-3-(2,2-difluorocyclopropyl)-5-(trifluoromethyl)benzamide]
≥ 80%: percent control (mortality, anti-feedant or growth inhibition) at 200 ppm [1] | percent control (mortality or growth inhibition) at 200 ppm [2] | mortality at 500 ppm [3] | percent control (mortality, anti-feedant or growth inhibition) at 200 ppm [4] | percent control (mortality or growth inhibition) at 200 ppm [5]

CC(NC(=O)c1cc(C2CC2)cc(C(F)(F)F)c1)c1nc(Br)nn1-c1ncc(OCC(F)F)cn1 (centres unmarked) [Compound P18, N-[1-[5-bromo-2-[5-(2,2-difluoroethoxy)pyrimidin-2-yl]-1,2,4-triazol-3-yl]ethyl]-3-cyclopropyl-5-(trifluoromethyl)benzamide]
≥ 80%: percent control (mortality, anti-feedant or growth inhibition) at 200 ppm [1] | percent control (mortality or growth inhibition) at 200 ppm [2] | mortality at 500 ppm [3] | percent control (mortality, anti-feedant or growth inhibition) at 200 ppm [4] | percent control (mortality or growth inhibition) at 200 ppm [5]

CC(NC(=O)c1cc(C2CC2(F)F)cc(C(F)(F)F)c1)c1nc(Br)nn1-c1ncc(OC(F)F)cn1 (centres unmarked) [Compound P12, N-[1-[5-bromo-2-[5-(difluoromethoxy)pyrimidin-2-yl]-1,2,4-triazol-3-yl]ethyl]-3-(2,2-difluorocyclopropyl)-5-(trifluoromethyl)benzamide]
≥ 80%: percent control (mortality, anti-feedant or growth inhibition) at 200 ppm [1] | percent control (mortality or growth inhibition) at 200 ppm [2] | mortality at 500 ppm [3] | percent control (mortality, anti-feedant or growth inhibition) at 200 ppm [4] | percent control (mortality or growth inhibition) at 200 ppm [5]

CC(NC(=O)c1cc(C2CC2(F)F)cc(C(F)(F)F)c1)c1nc(Br)nn1-c1ccc(OCC(F)F)cn1 (centres unmarked) [Compound P22, N-[1-[5-bromo-2-[5-(2,2-difluoroethoxy)-2-pyridyl]-1,2,4-triazol-3-yl]ethyl]-3-(2,2-difluorocyclopropyl)-5-(trifluoromethyl)benzamide]
≥ 80%: percent control (mortality, anti-feedant or growth inhibition) at 200 ppm [1] | mortality at 500 ppm [3] | percent control (mortality, anti-feedant or growth inhibition) at 200 ppm [4] | percent control (mortality or growth inhibition) at 200 ppm [5]

CC(NC(=O)c1cc(C(F)(F)F)cc(S(=O)(=O)C(F)(F)F)c1)c1nc(Br)nn1-c1ncc(OCC(F)F)cn1 (centres unmarked) [Compound P24, N-[1-[5-bromo-2-[5-(2,2-difluoroethoxy)pyrimidin-2-yl]-1,2,4-triazol-3-yl]ethyl]-3-(trifluoromethyl)-5-(trifluoromethylsulfonyl) benzamide]
≥ 80%: percent control (mortality, anti-feedant or growth inhibition) at 200 ppm [1] | mortality at 500 ppm [3] | percent control (mortality, anti-feedant or growth inhibition) at 200 ppm [4] | percent control (mortality or growth inhibition) at 200 ppm [5]

CC(NC(=O)c1cc(C(F)(F)F)cc(C(C)(C)C#N)c1)c1nc(Br)nn1-c1ccc(OCC(F)F)cn1 (centres unmarked) [Compound P40, N-[1-[5-bromo-2-[5-(2,2-difluoroethoxy)-2-pyridyl]-1,2,4-triazol-3-yl]ethyl]-3-(1-cyano-1-methyl-ethyl)-5-(trifluoromethyl)benzamide]
≥ 80%: percent control (mortality, anti-feedant or growth inhibition) at 200 ppm [1] | mortality at 500 ppm [3] | percent control (mortality, anti-feedant or growth inhibition) at 200 ppm [4] | percent control (mortality or growth inhibition) at 200 ppm [5]

CC(NC(=O)c1cc(C(F)(F)F)cc(S(=O)(=O)C(F)(F)F)c1)c1nc(Br)nn1-c1ccc(C#N)cn1 (centres unmarked) [Compound P17, N-[1-[5-bromo-2-(5-cyano-2-pyridyl)-1,2,4-triazol-3-yl]ethyl]-3-(trifluoromethyl)-5-(trifluoromethylsulfonyl)benzamide]
≥ 80%: percent control (mortality, anti-feedant or growth inhibition) at 200 ppm [1] | percent control (mortality or growth inhibition) at 200 ppm [2] | percent control (mortality, anti-feedant or growth inhibition) at 200 ppm [4] | percent control (mortality or growth inhibition) at 200 ppm [5]

CC(NC(=O)c1cc(C(F)(F)F)cc(C(C)(C)C#N)c1)c1nc(Br)nn1-c1ncc(OCC(F)F)cn1 (centres unmarked) [Compound P38, N-[1-[5-bromo-2-[5-(2,2-difluoroethoxy)pyrimidin-2-yl]-1,2,4-triazol-3-yl]ethyl]-3-(1-cyano-1-methyl-ethyl)-5-(trifluoromethyl)benzamide]
≥ 80%: percent control (mortality, anti-feedant or growth inhibition) at 200 ppm [1] | percent control (mortality or growth inhibition) at 200 ppm [2] | percent control (mortality, anti-feedant or growth inhibition) at 200 ppm [4] | percent control (mortality or growth inhibition) at 200 ppm [5]

CC(NC(=O)c1cc(C(F)(F)F)cc(C(F)(F)C2CC2)c1)c1nc(Br)nn1-c1ncc(OCC(F)F)cn1 (centres unmarked) [Compound P15, N-[1-[5-bromo-2-[5-(2,2-difluoroethoxy)pyrimidin-2-yl]-1,2,4-triazol-3-yl]ethyl]-3-[cyclopropyl(difluoro)methyl]-5-(trifluoromethyl)benzamide]
≥ 80%: percent control (mortality, anti-feedant or growth inhibition) at 200 ppm [1] | percent control (mortality or growth inhibition) at 200 ppm [2] | percent control (mortality, anti-feedant or growth inhibition) at 200 ppm [4] | percent control (mortality or growth inhibition) at 200 ppm [5]

CC(NC(=O)c1cc(C2CC2)cc(C(F)(F)F)c1)c1nc(Br)nn1-c1ccc(OCC(F)F)cn1 (centres unmarked) [Compound P27, N-[1-[5-bromo-2-[5-(2,2-difluoroethoxy)-2-pyridyl]-1,2,4-triazol-3-yl]ethyl]-3-cyclopropyl-5-(trifluoromethyl)benzamide]
≥ 80%: percent control (mortality, anti-feedant or growth inhibition) at 200 ppm [1] | mortality at 500 ppm [3] | percent control (mortality or growth inhibition) at 200 ppm [5]

CC(NC(=O)c1cc(C2CC2)cc(C(F)(F)F)c1)c1nc(Br)nn1-c1ccc(OC(F)F)cn1 (centres unmarked) [Compound P25, N-[1-[5-bromo-2-[5-(difluoromethoxy)-2-pyridyl]-1,2,4-triazol-3-yl]ethyl]-3-cyclopropyl-5-(trifluoromethyl)benzamide]
≥ 80%: percent control (mortality, anti-feedant or growth inhibition) at 200 ppm [1] | percent control (mortality or growth inhibition) at 200 ppm [2] | percent control (mortality, anti-feedant or growth inhibition) at 200 ppm [4] | percent control (mortality or growth inhibition) at 200 ppm [5]

CC(NC(=O)c1cc(C2CC2)cc(C(F)(F)F)c1)c1nc(Br)nn1-c1ccc(C#N)cn1 (centres unmarked) [Compound P19, N-[1-[5-bromo-2-(5-cyano-2-pyridyl)-1,2,4-triazol-3-yl]ethyl]-3-cyclopropyl-5-(trifluoromethyl)benzamide]
≥ 80%: percent control (mortality, anti-feedant or growth inhibition) at 200 ppm [1] | percent control (mortality or growth inhibition) at 200 ppm [2] | percent control (mortality, anti-feedant or growth inhibition) at 200 ppm [4] | percent control (mortality or growth inhibition) at 200 ppm [5]
